Test results: ChEMBL document CHEMBL5058646 (2022)

Tests used:
[1] = target: Mitogen-activated protein kinase 9 (Homo sapiens) (UniProt P45984); assay: MAPK9 SGC Tm panel (DSF); details: Compound concentration 20.0 uM
[2] = target: Ribosomal protein S6 kinase alpha-1 (Homo sapiens) (UniProt Q15418); assay: RPS6KA1 SGC Tm panel (DSF); details: Compound concentration 20.0 uM
[3] = target: Transcription regulator protein BACH2 (Homo sapiens) (UniProt Q9BYV9); details: OCI-Ly1, Compound concentration 1.0 uM
Sequence of Transcription regulator protein BACH2 (Homo sapiens) (Q9BYV9 whole entry): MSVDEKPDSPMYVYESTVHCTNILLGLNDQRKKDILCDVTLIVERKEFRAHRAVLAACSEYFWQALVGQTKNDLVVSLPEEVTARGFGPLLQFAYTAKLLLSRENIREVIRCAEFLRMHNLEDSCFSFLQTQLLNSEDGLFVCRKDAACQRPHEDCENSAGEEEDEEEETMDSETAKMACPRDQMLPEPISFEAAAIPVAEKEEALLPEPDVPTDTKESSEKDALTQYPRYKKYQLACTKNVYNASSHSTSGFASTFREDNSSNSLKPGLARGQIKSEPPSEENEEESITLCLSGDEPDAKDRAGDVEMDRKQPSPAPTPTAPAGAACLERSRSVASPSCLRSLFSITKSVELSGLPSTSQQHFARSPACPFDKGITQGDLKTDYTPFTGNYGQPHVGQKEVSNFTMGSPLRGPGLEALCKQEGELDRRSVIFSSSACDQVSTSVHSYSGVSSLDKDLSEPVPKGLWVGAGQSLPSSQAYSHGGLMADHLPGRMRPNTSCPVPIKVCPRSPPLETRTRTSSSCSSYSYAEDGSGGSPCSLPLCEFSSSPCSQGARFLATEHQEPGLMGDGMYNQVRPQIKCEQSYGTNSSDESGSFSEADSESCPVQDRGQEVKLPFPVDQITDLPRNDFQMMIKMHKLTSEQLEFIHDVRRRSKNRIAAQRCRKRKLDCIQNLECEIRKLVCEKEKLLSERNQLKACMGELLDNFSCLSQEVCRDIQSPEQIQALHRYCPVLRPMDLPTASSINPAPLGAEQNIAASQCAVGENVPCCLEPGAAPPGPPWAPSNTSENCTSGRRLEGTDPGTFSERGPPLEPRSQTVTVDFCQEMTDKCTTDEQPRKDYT

[4] = target: Death-associated protein kinase 1 (Homo sapiens) (UniProt P53355); assay: DAPK1 SGC Tm panel (DSF); details: Compound concentration 20.0 uM
Mu-type opioid receptor = Mu-type opioid receptor (Homo sapiens, UniProt P35372); assay: GPCRScan assay: inhibition of MOR; parameters: radioligand conc. used [nm] 1.0 – 2.0, parental cells stable HEK
Sequence of Mu-type opioid receptor (P35372 whole entry): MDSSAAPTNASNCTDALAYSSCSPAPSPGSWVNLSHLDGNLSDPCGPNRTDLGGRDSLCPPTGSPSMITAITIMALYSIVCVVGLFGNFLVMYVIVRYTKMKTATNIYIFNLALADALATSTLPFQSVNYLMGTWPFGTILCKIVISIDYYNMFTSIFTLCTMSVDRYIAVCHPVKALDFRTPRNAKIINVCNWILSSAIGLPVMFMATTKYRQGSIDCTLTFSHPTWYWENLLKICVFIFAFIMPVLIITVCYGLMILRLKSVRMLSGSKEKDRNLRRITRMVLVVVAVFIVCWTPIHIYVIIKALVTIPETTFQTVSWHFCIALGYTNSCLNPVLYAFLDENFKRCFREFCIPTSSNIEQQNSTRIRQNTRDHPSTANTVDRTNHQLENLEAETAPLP

[5] = target: Muscarinic acetylcholine receptor M3 (Homo sapiens) (UniProt P20309); details: Compound concentration 10.0 uM
Sequence of Muscarinic acetylcholine receptor M3 (Homo sapiens) (P20309 whole entry, looked up, the tested form may be a part): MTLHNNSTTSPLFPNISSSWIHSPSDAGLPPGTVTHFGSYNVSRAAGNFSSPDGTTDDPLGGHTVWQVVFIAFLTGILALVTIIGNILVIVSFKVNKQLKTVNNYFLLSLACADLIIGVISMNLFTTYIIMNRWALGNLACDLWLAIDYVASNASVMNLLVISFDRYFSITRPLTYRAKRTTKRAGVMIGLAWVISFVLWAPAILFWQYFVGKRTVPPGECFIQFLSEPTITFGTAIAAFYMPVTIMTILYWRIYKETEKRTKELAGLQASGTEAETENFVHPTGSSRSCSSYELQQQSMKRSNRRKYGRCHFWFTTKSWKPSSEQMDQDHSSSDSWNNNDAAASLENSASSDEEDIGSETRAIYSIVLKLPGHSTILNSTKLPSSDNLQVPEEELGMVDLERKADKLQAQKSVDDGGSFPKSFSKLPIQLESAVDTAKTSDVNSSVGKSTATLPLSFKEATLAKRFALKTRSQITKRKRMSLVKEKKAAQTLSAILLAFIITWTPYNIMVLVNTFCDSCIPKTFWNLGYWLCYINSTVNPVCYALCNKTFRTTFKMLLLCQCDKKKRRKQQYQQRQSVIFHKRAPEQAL

[6] = target: T1, Zinc finger and BTB domain-containing protein 40 (Homo sapiens) (UniProt Q9NUA8); details: SUD4, Compound concentration 1.0 uM
T1 sequence (whole entry): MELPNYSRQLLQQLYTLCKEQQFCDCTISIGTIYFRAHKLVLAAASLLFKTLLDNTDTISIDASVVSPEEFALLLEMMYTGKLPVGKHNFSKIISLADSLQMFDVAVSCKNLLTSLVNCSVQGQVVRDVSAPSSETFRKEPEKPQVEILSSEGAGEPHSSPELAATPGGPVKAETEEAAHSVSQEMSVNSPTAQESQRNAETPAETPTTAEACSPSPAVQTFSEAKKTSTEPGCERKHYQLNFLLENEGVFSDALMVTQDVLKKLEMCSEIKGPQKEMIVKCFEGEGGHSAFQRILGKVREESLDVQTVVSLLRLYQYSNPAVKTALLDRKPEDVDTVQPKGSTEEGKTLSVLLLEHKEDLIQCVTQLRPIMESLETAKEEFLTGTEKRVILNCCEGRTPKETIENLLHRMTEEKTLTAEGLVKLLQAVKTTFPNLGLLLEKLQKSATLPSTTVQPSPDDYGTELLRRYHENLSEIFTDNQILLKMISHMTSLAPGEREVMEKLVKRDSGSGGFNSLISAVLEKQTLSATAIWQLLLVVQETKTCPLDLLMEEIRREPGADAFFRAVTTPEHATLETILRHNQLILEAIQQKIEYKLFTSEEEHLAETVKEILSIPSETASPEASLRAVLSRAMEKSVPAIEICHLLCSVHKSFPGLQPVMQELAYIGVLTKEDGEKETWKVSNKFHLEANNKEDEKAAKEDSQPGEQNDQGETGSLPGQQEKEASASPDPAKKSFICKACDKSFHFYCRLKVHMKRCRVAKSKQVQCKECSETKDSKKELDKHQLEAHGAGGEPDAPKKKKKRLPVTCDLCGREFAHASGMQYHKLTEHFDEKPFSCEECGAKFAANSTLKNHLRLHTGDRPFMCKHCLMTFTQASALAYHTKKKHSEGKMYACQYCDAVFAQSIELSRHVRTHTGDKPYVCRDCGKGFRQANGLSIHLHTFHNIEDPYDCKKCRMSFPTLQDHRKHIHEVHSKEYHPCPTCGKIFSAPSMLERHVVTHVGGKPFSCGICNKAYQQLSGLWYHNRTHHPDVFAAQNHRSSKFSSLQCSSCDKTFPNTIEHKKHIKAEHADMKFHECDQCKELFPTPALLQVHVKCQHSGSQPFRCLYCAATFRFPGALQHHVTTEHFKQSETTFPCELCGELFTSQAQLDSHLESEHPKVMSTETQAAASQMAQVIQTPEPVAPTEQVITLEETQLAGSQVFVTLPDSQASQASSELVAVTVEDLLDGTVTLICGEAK

[7] = target: STE20/SPS1-related proline-alanine-rich protein kinase (Homo sapiens) (UniProt Q9UEW8); assay: STK39 SGC Tm panel (DSF); details: Compound concentration 20.0 uM
[8] = target: Mitogen-activated protein kinase 15 (Homo sapiens) (UniProt Q8TD08); assay: MAPK15 SGC Tm panel (DSF); details: Compound concentration 20.0 uM
[9] = target: Transcription regulator protein BACH2 (Homo sapiens) (UniProt Q9BYV9); details: SUD4, Compound concentration 1.0 uM
[10] = target: MAP/microtubule affinity-regulating kinase 4 (Homo sapiens) (UniProt Q96L34); assay: MARK4 SGC Tm panel (DSF); details: Compound concentration 20.0 uM
Sequence of MAP/microtubule affinity-regulating kinase 4 (Homo sapiens) (Q96L34 whole entry): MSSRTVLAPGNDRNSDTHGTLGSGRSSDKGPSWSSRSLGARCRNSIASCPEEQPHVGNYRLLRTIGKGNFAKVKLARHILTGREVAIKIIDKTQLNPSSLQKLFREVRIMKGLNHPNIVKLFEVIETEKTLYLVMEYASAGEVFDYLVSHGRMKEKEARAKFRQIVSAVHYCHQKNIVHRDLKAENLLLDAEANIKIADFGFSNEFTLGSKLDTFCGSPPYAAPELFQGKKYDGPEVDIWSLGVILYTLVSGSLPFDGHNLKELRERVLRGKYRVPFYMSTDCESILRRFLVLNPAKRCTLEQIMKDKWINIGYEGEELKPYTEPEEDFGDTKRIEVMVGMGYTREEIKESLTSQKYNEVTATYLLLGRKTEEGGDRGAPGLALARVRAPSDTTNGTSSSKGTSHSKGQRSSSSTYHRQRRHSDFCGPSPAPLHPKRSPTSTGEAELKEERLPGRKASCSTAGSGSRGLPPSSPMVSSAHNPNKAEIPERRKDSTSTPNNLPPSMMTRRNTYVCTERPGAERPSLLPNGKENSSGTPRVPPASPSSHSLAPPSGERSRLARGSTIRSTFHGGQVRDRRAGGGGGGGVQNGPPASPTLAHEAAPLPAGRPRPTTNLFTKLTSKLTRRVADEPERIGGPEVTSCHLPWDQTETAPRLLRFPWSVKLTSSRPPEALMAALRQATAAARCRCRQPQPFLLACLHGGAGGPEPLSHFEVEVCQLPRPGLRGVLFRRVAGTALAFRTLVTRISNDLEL

[11] = target: Serine/threonine-protein kinase 26 (Homo sapiens) (UniProt Q9P289); assay: MST4 SGC Tm panel (DSF); details: Compound concentration 20.0 uM
[12] = target: Dual specificity mitogen-activated protein kinase kinase 1 (Homo sapiens) (UniProt Q02750); assay: MAP2K1 SGC Tm panel (DSF); details: Compound concentration 20.0 uM
Sequence of Dual specificity mitogen-activated protein kinase kinase 1 (Homo sapiens) (Q02750 whole entry): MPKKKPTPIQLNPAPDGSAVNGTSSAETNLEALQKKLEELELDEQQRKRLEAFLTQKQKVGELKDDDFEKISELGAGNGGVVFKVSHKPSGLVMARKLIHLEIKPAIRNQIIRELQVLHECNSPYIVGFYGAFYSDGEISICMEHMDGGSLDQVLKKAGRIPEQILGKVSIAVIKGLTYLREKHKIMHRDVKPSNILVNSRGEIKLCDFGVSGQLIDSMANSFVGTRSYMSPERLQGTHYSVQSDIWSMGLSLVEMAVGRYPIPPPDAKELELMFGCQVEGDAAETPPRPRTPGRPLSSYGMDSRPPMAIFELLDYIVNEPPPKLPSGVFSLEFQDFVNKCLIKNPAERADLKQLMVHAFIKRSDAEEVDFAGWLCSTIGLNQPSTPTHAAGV

[13] = target: B-cell lymphoma 6 protein (Homo sapiens, UniProt P41182); details: SUD4, Compound concentration 1.0 uM
[14] = target: Delta-type opioid receptor (Homo sapiens) (UniProt P41143); details: Compound concentration 10.0 uM
Sequence of Delta-type opioid receptor (Homo sapiens) (P41143 whole entry): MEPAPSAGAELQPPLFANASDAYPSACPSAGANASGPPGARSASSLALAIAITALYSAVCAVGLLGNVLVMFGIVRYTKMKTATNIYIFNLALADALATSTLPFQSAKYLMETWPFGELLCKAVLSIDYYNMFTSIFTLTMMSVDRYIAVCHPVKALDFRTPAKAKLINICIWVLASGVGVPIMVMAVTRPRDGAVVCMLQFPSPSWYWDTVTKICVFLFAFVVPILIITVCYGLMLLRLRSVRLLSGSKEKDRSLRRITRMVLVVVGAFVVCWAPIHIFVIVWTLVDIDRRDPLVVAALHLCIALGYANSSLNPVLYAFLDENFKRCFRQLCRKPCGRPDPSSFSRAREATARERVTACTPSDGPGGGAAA

[15] = target: D(1A) dopamine receptor (Homo sapiens) (UniProt P21728); details: Compound concentration 10.0 uM
Sequence of D(1A) dopamine receptor (Homo sapiens) (P21728 whole entry): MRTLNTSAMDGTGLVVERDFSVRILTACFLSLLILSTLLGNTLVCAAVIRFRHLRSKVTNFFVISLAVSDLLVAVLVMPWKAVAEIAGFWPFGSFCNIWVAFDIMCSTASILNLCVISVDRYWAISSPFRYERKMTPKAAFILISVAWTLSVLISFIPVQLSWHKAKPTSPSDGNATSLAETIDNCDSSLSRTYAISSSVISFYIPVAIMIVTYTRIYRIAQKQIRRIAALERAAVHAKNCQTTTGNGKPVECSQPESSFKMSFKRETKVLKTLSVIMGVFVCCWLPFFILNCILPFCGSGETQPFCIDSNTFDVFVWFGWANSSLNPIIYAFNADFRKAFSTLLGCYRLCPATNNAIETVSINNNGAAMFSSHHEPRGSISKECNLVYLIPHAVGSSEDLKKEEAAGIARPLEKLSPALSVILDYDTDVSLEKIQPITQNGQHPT

Sequence of Mitogen-activated protein kinase 9 (Homo sapiens) (P45984 whole entry, looked up): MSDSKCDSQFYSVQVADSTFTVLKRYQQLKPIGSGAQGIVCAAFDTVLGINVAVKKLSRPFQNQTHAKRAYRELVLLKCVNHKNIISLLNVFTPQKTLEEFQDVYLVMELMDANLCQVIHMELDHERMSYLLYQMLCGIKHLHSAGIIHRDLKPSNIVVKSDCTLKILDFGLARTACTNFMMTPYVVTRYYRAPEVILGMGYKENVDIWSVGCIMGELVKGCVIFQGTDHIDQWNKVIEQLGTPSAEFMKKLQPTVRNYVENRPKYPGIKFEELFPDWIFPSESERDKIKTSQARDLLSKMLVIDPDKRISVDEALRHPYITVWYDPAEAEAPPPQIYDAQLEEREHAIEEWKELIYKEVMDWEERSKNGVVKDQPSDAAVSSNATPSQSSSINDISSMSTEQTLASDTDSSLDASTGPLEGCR
Sequence of Ribosomal protein S6 kinase alpha-1 (Homo sapiens) (Q15418 whole entry): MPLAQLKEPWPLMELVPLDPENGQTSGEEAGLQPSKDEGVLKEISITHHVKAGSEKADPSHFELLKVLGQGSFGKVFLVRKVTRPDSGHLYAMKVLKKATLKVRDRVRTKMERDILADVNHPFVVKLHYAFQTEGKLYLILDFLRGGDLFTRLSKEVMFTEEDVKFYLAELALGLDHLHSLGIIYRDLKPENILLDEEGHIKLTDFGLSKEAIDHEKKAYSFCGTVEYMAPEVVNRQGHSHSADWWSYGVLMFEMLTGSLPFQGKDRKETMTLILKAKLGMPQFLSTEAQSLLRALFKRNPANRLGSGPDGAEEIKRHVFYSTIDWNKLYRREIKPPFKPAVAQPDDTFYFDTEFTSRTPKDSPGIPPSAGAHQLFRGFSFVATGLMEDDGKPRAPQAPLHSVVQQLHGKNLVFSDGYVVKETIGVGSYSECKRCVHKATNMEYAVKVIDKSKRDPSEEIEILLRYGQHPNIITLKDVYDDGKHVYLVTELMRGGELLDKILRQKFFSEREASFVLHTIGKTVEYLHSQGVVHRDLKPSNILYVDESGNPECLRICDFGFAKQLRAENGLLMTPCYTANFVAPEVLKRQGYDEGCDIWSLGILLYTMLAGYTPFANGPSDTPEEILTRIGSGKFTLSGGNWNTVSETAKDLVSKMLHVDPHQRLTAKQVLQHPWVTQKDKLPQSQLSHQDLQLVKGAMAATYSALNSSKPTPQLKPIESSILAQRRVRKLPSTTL

C[C@@H]1CN(c2ncc(Cl)c(Nc3ccc4c(c3)n(CCC(C)(C)O)c(=O)n4C)n2)C[C@H](C)C1(F)F
Tm [1]: 54 °C
Tm [2]: 50 °C
LogFC [3]: -0.00139
Tm [4]: 53 °C
Ki (Mu-type opioid receptor; read-out: Ki): 872 nM
Ki (Mu-type opioid receptor; read-out: pKi (converted)): 851 nM
inhibition [5]: 12%
LogFC [6]: 0.0845
Tm [7]: 37 °C
Tm [8]: 50 °C
LogFC [9]: -0.0895
Tm [10]: 36 °C
Tm [11]: 44 °C
Tm [12]: 45 °C
LogFC [13]: -1.2
inhibition [14]: 18.1%
inhibition [15]: 27.3%
